Assays:
human P2X3 receptor = human P2X3 receptor (Homo sapiens (Human), UniProt P56373); test: Evaluation of human P2X3 receptor inhibitory activity (Test Example 1-2, FLIPR 384, 384-well, 150 nM ATP); assay type: cell-based; conditions: human P2X3 receptor in C6BU-1 cells; Test Example 1-2 (compounds I-301 to I-483); read-out: P2X3 IC50
Summary of the method: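 Human P2X3 stably expressed in C6BU-1 cells, Fluo-3-AM loaded, read on FLIPR at pH 7.5 HEPES buffer. Compound added 5 min before 150 nM ATP; peak/baseline fluorescence over 4 min gave inhibition (buffer instead of ATP = 100%), from which IC50 was derived.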

Rat P2X3 receptor = Rat P2X3 receptor (Rattus norvegicus (Rat), UniProt P49654); test: Evaluation of rat P2X3 receptor inhibitory activity in the presence of rat serum albumin (RSA) (Test Example 3-2); assay type: cell-based; conditions: rat P2X3 receptor in C6BU-1 cells
Sequence of Rat P2X3 receptor (P49654 whole entry): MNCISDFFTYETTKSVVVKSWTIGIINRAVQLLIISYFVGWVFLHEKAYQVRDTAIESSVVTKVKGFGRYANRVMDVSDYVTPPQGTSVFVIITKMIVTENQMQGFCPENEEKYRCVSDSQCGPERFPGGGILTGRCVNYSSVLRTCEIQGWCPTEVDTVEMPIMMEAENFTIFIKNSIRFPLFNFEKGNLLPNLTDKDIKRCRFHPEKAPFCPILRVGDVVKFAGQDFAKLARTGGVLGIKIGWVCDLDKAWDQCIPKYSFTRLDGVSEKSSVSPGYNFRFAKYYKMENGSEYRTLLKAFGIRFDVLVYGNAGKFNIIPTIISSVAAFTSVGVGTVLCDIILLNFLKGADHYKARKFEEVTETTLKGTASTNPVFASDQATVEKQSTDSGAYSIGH
Experimental: Rat P2X3 receptor gene (GenBank accession number NM_031075) was expressed in C6BU-1 cell. The C6BU-1 cells were seeded in a 96-well microtiter plate at a concentration of 2500 cells/well and cultured in the medium (7.0% fetal bovine serum, 7.0% horse serum, and 1% antibiotic and antifungal in DMEM) for one day at 37° C. under 5% carbon dioxide atmosphere. The plasmid was transfected into the cells using transfection reagent FuGENEG (Roche). The transfected cells were cultured in the medium for one day at 37° C. under 5% carbon dioxide atmosphere. The medium was replaced with 4 μM Fluo-3-AM solution (pH7.5) containing 20 mM HEPES, […], 5.27 mM KCl, 0.9 mM MgCl2, 1.26 mM CaCl2, 5.6 mM D-glucose, 2.5 mM probenecid, 1% BSA, and 0.08% Pluronic F-127, and incubated at 37° C. under 5% dioxide carbon atmosphere for one hour. The plate was washed with washing buffer (20 mM HEPES, 137 mM NaCl, 5.27 mM KCl, 0.9 mM MgCl2, 1.26 mM CaCl2, 5.6 mM D-glucose, 2.5 mM probenecid, pH7.5), and each well was added with 40 μL of this buffer. The plate was placed in High-Throughput Screening System FDSS 3000 (Hamamatsu Photonics K.K.). Measurement of fluorescence intensity by FDSS 3000 was started, and 40 μL of DMSO solutions containing 1% RSA (final concentrations) and different concentrations of the test compound as prepared by dilution with dilution buffer (20 mM HEPES, 137 mM NaCl, 5.27 mM KCl, 0.9 mM MgCl2, 1.26 mM CaCl2, 5.6 mM D-glucose, 2.5 mM probenecid, 0.1% Pluronic F-127, pH7.5) were dispensed to each well through the built-in automatic dispenser. Five minutes after, 50 nM ATP solution (50 μL) prepared by dilution with the dilution buffer was dispensed through the built-in automatic dispenser, and the measurement of fluorescence intensity was continued for 4 min. For each well, the specific maximum fluorescence intensity was calculated as the ratio of the maximum fluorescence intensity after addition of the ATP solution to the fluorescence intensity at the starting of the measurement. The 50% inhibitory concentration (IC50) was calculated under the assumption that the specific maximum fluorescence intensity without test compound is 0% inhibition and that the specific maximum fluorescence intensity when the dilution buffer was added in place of ATP solution is 100% inhibition, to evaluate the inhibitory activity of the test compound. FDSS software (Hamamatsu Photonics K.K.) was used for calculation of the specific maximum fluorescence intensity. IC50 was calculated using Microsoft Excel (Microsoft Corporation) and XLfit (idbs Ltd.).

Sequence of human P2X3 receptor (P56373 whole entry): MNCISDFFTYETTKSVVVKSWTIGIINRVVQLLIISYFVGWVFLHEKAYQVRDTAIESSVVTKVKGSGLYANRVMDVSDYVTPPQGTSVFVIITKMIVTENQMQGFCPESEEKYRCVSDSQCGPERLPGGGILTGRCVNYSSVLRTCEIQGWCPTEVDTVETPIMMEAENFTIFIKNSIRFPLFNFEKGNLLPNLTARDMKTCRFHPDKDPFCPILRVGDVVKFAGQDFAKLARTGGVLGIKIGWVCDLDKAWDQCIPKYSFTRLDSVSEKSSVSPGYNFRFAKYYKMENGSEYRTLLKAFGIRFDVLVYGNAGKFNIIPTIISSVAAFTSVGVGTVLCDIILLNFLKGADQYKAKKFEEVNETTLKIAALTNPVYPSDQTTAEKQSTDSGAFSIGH

## Cc1cc(Oc2ccc(/N=c3\[nH]cc(NC(=O)C4CCOCC4)c(=O)n3Cc3ccc(Cl)cc3)cc2C)no1 [Compound I-304]
Human P2X3 receptor
  IC50: 12 nM
Rat P2X3 receptor
  IC50: 12 nM
